US11110158B2, “Prostate-associated antigens and vaccine-based immunotherapy regimens” (Pfizer Inc., priority 2012, dated 2021)

Key:
293 cells = assay: Expression of PSMA constructs in transfected 293 cells by FACS; assay type: cell-based; settings: 293 cells transfected with PJV7563 vector, stained with mouse anti-PSMA antibody three days later; cell surface expression
Experimental: The expression of the PSMA cytosolic, secreted, and modified antigens was determined by FACS. Mammalian 293 cells were transfected with the PJV7563 PMED vectors encoding the various immunogenic PSMA polypeptides. Three days later, the 293 cells were stained with mouse anti-PSMA antibody, followed with a fluorescent conjugated (FITC) rat anti-mouse secondary antibody.

native PSMA protein = assay: Sandwich ELISA, anti-PSMA antibody titers in serum of vaccinated Pasteur mice; assay type: in vivo, mouse
Experimental: The standard sandwich ELISA assay was done using an automated Biotek system. The plates were coated with 25 μl of native PSMA protein at a 1.0 μg/ml in PBS overnight, the plates were washed and blocked with 35 μl/well of 5% FBS 1×PBS-T 0.05% and incubated for 1 hour at RT on a shaker at 600 RPM. The blocking media was decanted and serial dilute vaccinated mouse serum with half log dilutions in 5% FBS 1×PBS-T 0.05% starting at 1:100 or 1:500 were made and 25μ samples of the diluted serum were added to each well of the 96 well plates and incubated for 1 hour at RT on a shaker at 600 RPM. The plates were washed 3 times with 75 ul/well in 1×PBS-T 0.05% using the Biotek ELx405, and 25 μl/well of 1:30,000 diluted anti-mouse IgG HRP (AbCam cat #ab20043) secondary antibody (diluted in 1×PBS-T 0.05%) was added to each well of the 96 well plates and incubated for 1 hour at RT on a shaker at 600 RPM. Plates were washed 5× with 75 ul/well in 1×PBS-T 0.05% using the Biotek EIx405. TMB Substrate was diluted at 1:10 and 25 μl was added to each well and incubated at RT for 30 minutes. The reaction was stopped by adding 12.5 μl/well of 1M H2SO4. Plates were read using the Spectramax Plus at 450 nm wavelength. Data were reported as titers and these could be reported as first positive (average and both values above 5% FBS PBS+3 time Standard Deviation) and/or as calculated titers at OD of 0.5 or 1.0. Serum from irrelevant vaccinated mice were used as negative controls.
Eight- to 10-week old Pasteur mice were immunized using PMED method with the various plasmid DNAs expressing shuffled PSMA modified antigens in a prime/boost/boost regimen, two weeks apart between each vaccination as described in Example 1F. Antigen specific T and B cell responses were measured 7 days after the last immunization in an interferon-gamma (IFNγ) ELISPOT assay and sandwich ELISA respectively.

LNCaP = assay: FACS cell binding assay of sera from PSMA vaccinated mice; assay type: cell-based, human; settings: Table 4
Experimental: Various prostate cancer cell lines were used for this assay. […] The cell binding assay was performed as follows: LNCaP and PC3 cells (or TRAMP-C2PSMA and TRAMP C2) were plated in separate wells at 2×10^5 cells/well (50 μL) in a 96 well plate. Sera from PSMA vaccinated mice, as described in […], were diluted 1:50 with FACS buffer (PBS pH 7.4, 1% FBS, 25 mM HEPES, and 1 mM EDTA). Fifty μL of diluted J591-A antibody (mouse anti-human PSMA antibody, clone J591-A from ATCC) were added to the diluted test sera or FACS buffer (unstained samples) to achieve the appropriate cell numbers per well in the staining plate. All was mixed by pipetting and then kept on ice for 20 min. The cells were washed twice with FACS buffer; each wash was by centrifugation at 1200 RPM at 5° C. for 5 minutes. Fifty μL of secondary staining solution were added containing a 1:200 dilution of PE-labeled goat anti-mouse Ig (Sigma, cat P9670-5) and 0.25 μl of Live/Dead Aqua stain (Invitrogen, cat. #L34957) to each of the cell containing wells and kept on ice for 20 min. Cells were washed twice as described earlier. Washed cell pellets were resuspended in 125 uL FACS buffer and then 75 uL 4% paraformaldehyde solution were added to each well to fix the cells. Samples were kept on ice and protected from light for at least 15 min. Samples were run on FACS Canto II. Ten thousand live cell events were recorded for each sample. […]

[1] = test system: hPSMA full-length protein; assay: IFN-γ ELISPOT, hPSMA modified versus full-length DNA vaccine in C57BL/6 mice; assay type: in vivo, human; settings: Example 7, FIG. 26; C57BL/6, PMED days 0, 14, 28; day 35
Text: The immune responses induced by DNA vaccination using a construct encoding an immunogenic PSMA polypeptide (the “human PSMA modified antigen” or “hPSMA modified”) consisting 15-750 amino acids (aa) of the native human PSMA protein of SEQ ID NO: 1 were compared with those induced by the native human full-length PSMA protein (hPSMA full length). Groups of female C57BL/6 mice or female Pasteur (HLA-A2/DR1) transgenic mice were primed on day 0 and boosted on days 14, 28 by PMED administration with a 2 μg dose of a DNA vaccine encoding either hPSMA full-length or hPSMA modified protein. Mice were bled and sacrificed on day 35 (7 days after the third vaccination) and T cell immune responses against the hPSMA full-length protein were determined in splenocytes by IFN-γ ELISPOT assay. For C57BL/6 mice, single cell suspensions of 5×10^5 splenocytes from individual animals were plated per well with […] purified hPSMA protein, 5×10^4 TRAMP-C2 cells alone, or TRAMP-C2 cells expressing hPSMA or a PSMA-PSA-PSCA fusion protein. […] Responses in Pasteur mice were also determined using 10 μg/ml purified PSMA protein or 5×10^4 SK-Mel5 cells that had been transduced with Adenoviral vectors expressing a control protein (Ad-eGFP) or the full-length human PSMA protein (Ad-hPSMA). […] The number of IFN-γ SFC was counted by a CTL reader. […]

PSMA modified: membrane-bound polypeptide of amino acids 15-750 of human PSMA, SEQ ID NO: 9; tested as DNA construct
Average mean fluorescent intensity (293 cells): 12270
ELISA (OD = 1) Average (+/−SD) (native PSMA protein; Table 3, anti-PSMA antibody titer calculated at OD of 1, Pasteur mice): 1067 (518)
# of positive (native PSMA protein; Table 3, mice with anti-PSMA antibody response by ELISA / N): 4/4
ELISA (OD = 0.5) (native PSMA protein; Table 10, anti-PSMA antibody titer calculated at OD of 0.5, Pasteur mice): 1159 (802)
# of positive (native PSMA protein; Table 10, mice with anti-PSMA antibody response by ELISA / mice tested): 7/7
Fold over background Average (+/−SD) (LNCaP; binding of serum anti-PSMA antibodies (1:50) to human prostate cancer cells LNCaP by FACS, background PC3): 6.01 (0.38)
# of positive (LNCaP; mice with serum binding to LNCaP by FACS / N): 4/4
IFN-γ T cell responses to TRAMP C2-PSMA or purified hPSMA protein [1]: equivalent T cell immune responses
